Source: PubChem BioAssay AID1963848 (Molecular Pharmacology Branch, DTP, NCI, 2024)

System: 379773-124-R-J2-PDC spheroid viability
Assay: Anticancer human tumor 379773-124-R-J2-PDC patient-derived endometrial carcinoma cell line growth inhibition [POLQ]
Conditions: spheroids with HUVEC and MSC; for IC50: curve of first compound; for viability, T/C: stronger effect = lower value
Procedure, shortened: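 Three-cell-type spheroids modelling solid tumor plus stroma served as the readout system; POL inhibitors were tested individually and in combination, concentration ranges set by clinical Cmax where known.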

[1] = second compound 0.0316 µM, first compound 0.0316 µM
[2] = second compound 0.0316 µM, first compound 0.1 µM
[3] = second compound 0.0316 µM, first compound 0.316 µM
[4] = second compound 0.0316 µM, first compound 1 µM
[5] = second compound 0.0316 µM, first compound 3.16 µM
[6] = second compound 0.0316 µM, first compound 10 µM
[7] = second compound 0.1 µM, first compound 0.0316 µM
[8] = second compound 0.1 µM, first compound 0.1 µM
[9] = second compound 0.1 µM, first compound 0.316 µM
[10] = second compound 0.1 µM, first compound 1 µM
[11] = second compound 0.1 µM, first compound 3.16 µM
[12] = second compound 0.1 µM, first compound 10 µM
[13] = second compound 0.316 µM, first compound 0.0316 µM
[14] = second compound 0.316 µM, first compound 0.1 µM
[15] = second compound 0.316 µM, first compound 0.316 µM
[16] = second compound 0.316 µM, first compound 1 µM
[17] = second compound 0.316 µM, first compound 3.16 µM
[18] = second compound 0.316 µM, first compound 10 µM
[19] = second compound 1 µM, first compound 0.0316 µM
[20] = second compound 1 µM, first compound 0.1 µM
[21] = second compound 1 µM, first compound 0.316 µM
[22] = second compound 1 µM, first compound 1 µM
[23] = second compound 1 µM, first compound 3.16 µM
[24] = second compound 1 µM, first compound 10 µM
[25] = second compound 3.16 µM, first compound 0.0316 µM
[26] = second compound 3.16 µM, first compound 0.1 µM
[27] = second compound 3.16 µM, first compound 0.316 µM
[28] = second compound 3.16 µM, first compound 1 µM
[29] = second compound 3.16 µM, first compound 3.16 µM
[30] = second compound 3.16 µM, first compound 10 µM
[31] = second compound 10 µM, first compound 0.0316 µM
[32] = second compound 10 µM, first compound 0.1 µM
[33] = second compound 10 µM, first compound 0.316 µM
[34] = second compound 10 µM, first compound 1 µM
[35] = second compound 10 µM, first compound 3.16 µM
[36] = second compound 10 µM, first compound 10 µM
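Further: spheroids exposed to drugs for seven days before readout.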
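Wherever viability, T/C is given: percent viability relative to DMSO vehicle control taken as 100%.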

**Q.** Which IC50 (second compound 0.0316 µM) does the source give for `CC(C)n1c(=O)n(C)c2cnc3cc(F)c(-c4ccc(OCCCN5CCCCC5)nc4)cc3c21` + COC1C(OC(N)=O)C(O)C(Oc2ccc3c(O)c(NC(=O)c4ccc(O)c(CC=C(C)C)c4)c(=O)oc3c2C)OC1(C)C here?
**A.** The IC50 was greater than 10000 nM.

**Q.** And the IC50 (second compound 0.1 µM)?
**A.** Its IC50 is greater than 10000 nM.

**Q.** What about the IC50 (second compound 0.316 µM) of the same compound?
**A.** Its IC50 is greater than 10000 nM.

**Q.** What about the IC50 (second compound 1 µM) of the same compound?
**A.** The IC50 was greater than 10000 nM.

**Q.** And the IC50 (second compound 3.16 µM)?
**A.** The IC50 was greater than 10000 nM.

**Q.** What about the IC50 (second compound 10 µM) of the same compound?
**A.** The IC50 was greater than 10000 nM.

**Q.** What about the viability, T/C [1] of the same compound?
**A.** The viability, T/C was 92.3%.

**Q.** What about the viability, T/C [2] of the same compound?
**A.** Its viability, T/C is 74%.

**Q.** And the viability, T/C [3]?
**A.** The viability, T/C was 86.2%.

**Q.** What about the viability, T/C [4] of the same compound?
**A.** Its viability, T/C is 75.7%.

**Q.** And the viability, T/C [5]?
**A.** The viability, T/C was 67.5%.

**Q.** And the viability, T/C [6]?
**A.** The viability, T/C was 56.5%.

**Q.** What about the viability, T/C [7] of the same compound?
**A.** The viability, T/C was 85.2%.

**Q.** And the viability, T/C [8]?
**A.** Its viability, T/C is 87.4%.

**Q.** What about the viability, T/C [9] of the same compound?
**A.** The viability, T/C was 87.5%.

**Q.** And the viability, T/C [10]?
**A.** Its viability, T/C is 76.6%.

**Q.** And the viability, T/C [11]?
**A.** The viability, T/C was 64.3%.

**Q.** And the viability, T/C [12]?
**A.** The viability, T/C was 68.4%.

**Q.** And the viability, T/C [13]?
**A.** The viability, T/C was 99.1%.

**Q.** What about the viability, T/C [14] of the same compound?
**A.** The viability, T/C was 81.2%.

**Q.** What about the viability, T/C [15] of the same compound?
**A.** The viability, T/C was 84%.

**Q.** What about the viability, T/C [16] of the same compound?
**A.** The viability, T/C was 75.3%.

**Q.** What about the viability, T/C [17] of the same compound?
**A.** The viability, T/C was 67.5%.

**Q.** What about the viability, T/C [18] of the same compound?
**A.** The viability, T/C was 60.5%.

**Q.** What about the viability, T/C [19] of the same compound?
**A.** The viability, T/C was 85.5%.

**Q.** What about the viability, T/C [20] of the same compound?
**A.** Its viability, T/C is 81.2%.

**Q.** What about the viability, T/C [21] of the same compound?
**A.** The viability, T/C was 77.4%.

**Q.** What about the viability, T/C [22] of the same compound?
**A.** The viability, T/C was 71.7%.

**Q.** And the viability, T/C [23]?
**A.** The viability, T/C was 69.8%.

**Q.** What about the viability, T/C [24] of the same compound?
**A.** Its viability, T/C is 75.7%.

**Q.** And the viability, T/C [25]?
**A.** Its viability, T/C is 78%.

**Q.** What about the viability, T/C [26] of the same compound?
**A.** The viability, T/C was 81.7%.

**Q.** What about the viability, T/C [27] of the same compound?
**A.** The viability, T/C was 77.7%.

**Q.** What about the viability, T/C [28] of the same compound?
**A.** Its viability, T/C is 68.1%.

**Q.** And the viability, T/C [29]?
**A.** Its viability, T/C is 77.7%.

**Q.** What about the viability, T/C [30] of the same compound?
**A.** The viability, T/C was 80.4%.

**Q.** And the viability, T/C [31]?
**A.** Its viability, T/C is 80.2%.

**Q.** What about the viability, T/C [32] of the same compound?
**A.** The viability, T/C was 74.6%.

**Q.** And the viability, T/C [33]?
**A.** The viability, T/C was 79.7%.

**Q.** And the viability, T/C [34]?
**A.** The viability, T/C was 72.2%.

**Q.** What about the viability, T/C [35] of the same compound?
**A.** The viability, T/C was 80.7%.

**Q.** What about the viability, T/C [36] of the same compound?
**A.** Its viability, T/C is 64.9%.

**Q.** How did the IC50 (second compound 0.0316 µM) turn out when `CC1COCCN1c1cc(-c2ccnn2C)c2ccnc(-c3ccn[nH]3)c2n1` (centres undefined) + COC1C(OC(N)=O)C(O)C(Oc2ccc3c(O)c(NC(=O)c4ccc(O)c(CC=C(C)C)c4)c(=O)oc3c2C)OC1(C)C was run?
**A.** Its IC50 is 76.8 nM.

**Q.** And the IC50 (second compound 0.1 µM)?
**A.** The IC50 was 81.1 nM.

**Q.** What about the IC50 (second compound 0.316 µM) of the same compound?
**A.** Its IC50 is 104 nM.

**Q.** And the IC50 (second compound 1 µM)?
**A.** Its IC50 is 73.9 nM.

**Q.** What about the IC50 (second compound 3.16 µM) of the same compound?
**A.** The IC50 was 111 nM.

**Q.** And the IC50 (second compound 10 µM)?
**A.** Its IC50 is 82.7 nM.

**Q.** And the viability, T/C [1]?
**A.** Its viability, T/C is 75.7%.

**Q.** And the viability, T/C [2]?
**A.** Its viability, T/C is 42.4%.

**Q.** What about the viability, T/C [3] of the same compound?
**A.** The viability, T/C was 10.5%.

**Q.** What about the viability, T/C [4] of the same compound?
**A.** Its viability, T/C is 9.05%.

**Q.** What about the viability, T/C [5] of the same compound?
**A.** The viability, T/C was 8.71%.

**Q.** And the viability, T/C [6]?
**A.** The viability, T/C was 5.49%.

**Q.** What about the viability, T/C [7] of the same compound?
**A.** Its viability, T/C is 85.5%.

**Q.** And the viability, T/C [8]?
**A.** The viability, T/C was 42.1%.

**Q.** And the viability, T/C [9]?
**A.** The viability, T/C was 9.78%.

**Q.** And the viability, T/C [10]?
**A.** Its viability, T/C is 8.09%.

**Q.** And the viability, T/C [11]?
**A.** Its viability, T/C is 9.06%.

**Q.** What about the viability, T/C [12] of the same compound?
**A.** The viability, T/C was 6.55%.

**Q.** What about the viability, T/C [13] of the same compound?
**A.** Its viability, T/C is 82.7%.

**Q.** What about the viability, T/C [14] of the same compound?
**A.** The viability, T/C was 51.4%.

**Q.** And the viability, T/C [15]?
**A.** Its viability, T/C is 11.2%.

**Q.** And the viability, T/C [16]?
**A.** The viability, T/C was 7.55%.

**Q.** And the viability, T/C [17]?
**A.** The viability, T/C was 8.92%.

**Q.** What about the viability, T/C [18] of the same compound?
**A.** Its viability, T/C is 7.56%.

**Q.** What about the viability, T/C [19] of the same compound?
**A.** The viability, T/C was 83.3%.

**Q.** What about the viability, T/C [20] of the same compound?
**A.** Its viability, T/C is 38.1%.

**Q.** What about the viability, T/C [21] of the same compound?
**A.** Its viability, T/C is 9.64%.

**Q.** What about the viability, T/C [22] of the same compound?
**A.** Its viability, T/C is 8.17%.

**Q.** And the viability, T/C [23]?
**A.** Its viability, T/C is 9.6%.

**Q.** And the viability, T/C [24]?
**A.** Its viability, T/C is 5.36%.

**Q.** And the viability, T/C [25]?
**A.** The viability, T/C was 64.1%.

**Q.** And the viability, T/C [26]?
**A.** The viability, T/C was 54%.

**Q.** What about the viability, T/C [27] of the same compound?
**A.** The viability, T/C was 11.1%.

**Q.** And the viability, T/C [28]?
**A.** Its viability, T/C is 7.3%.

**Q.** What about the viability, T/C [29] of the same compound?
**A.** The viability, T/C was 8.49%.

**Q.** And the viability, T/C [30]?
**A.** The viability, T/C was 6.71%.

**Q.** And the viability, T/C [31]?
**A.** The viability, T/C was 86.9%.

**Q.** What about the viability, T/C [32] of the same compound?
**A.** Its viability, T/C is 42.7%.

**Q.** And the viability, T/C [33]?
**A.** The viability, T/C was 10.4%.

**Q.** What about the viability, T/C [34] of the same compound?
**A.** The viability, T/C was 7.51%.

**Q.** And the viability, T/C [35]?
**A.** The viability, T/C was 9.13%.

**Q.** What about the viability, T/C [36] of the same compound?
**A.** The viability, T/C was 5.64%.
